# Data as given in patent publication US11261429B2, “Enriched and expanded human cord blood stem cells for treatment of hematological disorders” (ICAHN SCHOOL OF MEDICINE AT MOUNT SINAI, priority 2013, dated 2022).
# Where “and” joins values, the source holds several entries; their conditions need not be identical. Equal values may be shown once.
# Columns and labels:
# CB CD34+ cells = assay: Migration assay towards SDF1 (Transwell); format: cell-based, human; details: SDF1 100 ng/ml, after 16 and 48 hours, versus control
# Description: The migratory behavior of CB CD34+ cells was evaluated as previously described using 6.5 mm diameter, 5 μm pore Transwell plates (Costar) (Shivtiel et al., “CD45 Regulates Homing and Engraftment of Immature Normal and Leukemic Human Cells in Transplanted immunodeficient Mice,” Exp. Hematol. 39(12):1161-1170 (2011), which is hereby incorporated by reference in its entirety). The lower compartments of the Transwells were filled with StemLine II SF medium supplemented with 100 ng/ml of stromal-derived factor 1 (SDF1) (R&D Systems). The Transwell filters were coated with Matrigel for 30 minutes at 37° C. Re-isolated CD34+ cells (1×10^5) from the control and VPA-containing cultures were plated on the Matrigel-coated filters in 100 μl of Stemline II media. After 16 and 48 hours, cells that migrated to the lower compartment were enumerated, and the percentage of migration was calculated as follows: (number of cells migrated/total number of cells plated)×100.
# hTERT = assay: qPCR of pluripotency genes in CD34+ cells; format: cell-based, human; details: VPA-treated CD34+ cells
# Description: Total RNA was extracted from the human ES cell line 89 (WA09; WiCell Research Institute Inc., Madison, Wis., USA), PCs, reisolated CD34+ cells from control cultures or cultures containing VPA in SF and SC media using TRIzol and an RNeasy kit from QIAGEN, CA. Total RNA (0.5-1.0 μg) was reverse transcribed into cDNA using an RNA to cDNA EcoDry Premix kit (Clontech). The primer sequences are listed in Table 6. qPCR was performed using SYBR Green (Thermo Fisher Scientific) and the Realplex thermocycler (Eppendorf). All experiments were performed in triplicate, and non-template controls (lacking cDNA template were included in each assay. GAPDH served as an internal standard. The amplicons were run on a 2% agarose gel with a 50-bp-size (DNA ladder) marker.
# NSG mice = format: in vivo
# Description: As described previously, NSG mice were sublethally irradiated with 300 cGy 4 hours prior to the infusion of PCs (2×10^5), and CD34+ cells re-isolated after a week of culture under control conditions or cultures containing VPA in the presence or absence of cytokines were injected into NSG mice via the tail vein (Milhem et al., “Modification of Hematopoietic Stem Cell Fate by 5aza 2′deoxycytidine and Trichostatin A,” Blood 103:4102-4110 (2004); Araki et al., “Expansion of Human Umbilical Cord Blood SCID-Repopulating Cells Using Chromatin-Modifying Agents,” Exp. Hematol. 34:140-149 (2006); Araki et al., “Chromatin-Modifying Agents Permit Human Hematopoietic Stem Cells to Undergo Multiple Celt Divisions While Retaining Their Repopulating Potential,” Blood 109:3570-3578 (2007), which are hereby incorporated by reference in their entirety). […] BM cells from each mouse were analyzed for the presence of cells expressing human CD45-PECy7 or APC, CD34-APC or FITC, CD36-APC, CD33-PECy7, CD14-FITC, CD19-PE, CD41-FITC, CD71-FITC, and glycophorin A-PE (GPA-PE). The presence of at least 0.1% human CD45+ cells in the marrow of each recipient mouse was considered indicative of donor human hematopoietic engraftment (Milhem et al., “Modification of Hematopoietic Stem Cell Fate by 5aza 2′deoxycytidine and Trichostatin A,” Blood 103:4102-4110 (2004); Araki et al., “Expansion of Human Umbilical Cord Blood SCID-Repopulating Cells Using Chromatin-Modifying Agents,” Exp. Hematol. 34:140-149 (2006); Araki et al., “Chromatin-Modifying Agents Permit Human Hematopoietic Stem Cells to Undergo Multiple Cell Divisions While Retaining Their Repopulating Potential,” Blood 109:3570-3578 (2007); Chaurasia et al., “Chromatin-Modifying Agents Promote the Ex vivo Production of Functional Human Erythroid Progenitor Cells,” Blood 117:4632-4641 (2011), which are hereby incorporated by reference in their entirety). BM cells (2×10^6) from the primary recipient NSG mice were reinfused into sublethally irradiated secondary NSG recipient mice. Mice were sacrificed 15-16 weeks after transplantation, and BM cells were stained with mAbs and analyzed by flow cytometry for evidence of human chimerism as described above.
# class I and II HDAC = assay: HDAC protein levels in CB-MNCs, Western blot, all HDACs examined; format: cell-based, human; details: after 2 hours of treatment
# Source text: Cellular proteins were separated by SDS-PAGE using Novex (Invitrogen) and transferred by iBlot (Invitrogen). The membranes were probed with mAbs against individual histone deacetylases (HDAC1, HDAC2, HDAC3, HDAC4, HDAC5, HDAC6, and β-actin; Cell Signaling Technology) and developed using a chemiluminescence system with HRP-conjugated secondary antibodies (Amersham Biosciences) according to the manufacturer's instructions.
# [1] = tested on: ALDH+CD34+ and ALDH-CD34+ cells; assay: BFU-E + CFU-Mix generated from sorted ALDH+CD34+ and ALDH-CD34+ cells; format: cell-based, human
# Source text: A far greater number of BFU-E+CFU-Mix were generated from ALDH+CD34+ cells generated in the presence of each of the HDACI in SF cultures as compared with SC cultures (ANOVA, p=0.001). By contrast, a greater number of BFU-E+CFU-Mix were generated from ALDH-CD34+ cells in SC cultures as compared to SF cultures. Mean±SE, ANOVA, p=0.01 (n=3).
# Purified ALDH+CD34+ cells generated using SF cultures supplemented with VPA generated greater absolute numbers of BFU-E and CFU-Mix (8.4×10^7±6.7×10^7/CB collection) as compared to SC cultures (1.4×10^7±0.88×10^7; ANOVA, p=0.001) (FIG. 20A). By contrast, ALDH-CD34+ cells from SC cultures supplemented with VPA generated greater numbers of BFU-E and CFU-Mix (2.7×10^6±1.0×10^6) as compared to SF cultures (3.5×10^5±0.78×10^5) (ANOVA, p=0.01) (FIG. 20B).
# [2] = VPA alone (no cytokines), SF, 12-13 weeks
# [3] = cells cultured with cytokines plus VPA, SF, 13-14 weeks after transplantation
# [4] = SC cultures supplemented with VPA
# [5] = SF cultures supplemented with VPA
compound,measurement,setting,value
"CCCC(CCC)C(=O)O [VPA, valproic acid]",migration of CD34+ cells in response to SDF1,CB CD34+ cells,significantly greater number of CD34+ cells treated with VPA migrated in response to SDF1
same,hTERT expression,hTERT,not upregulated
same,"% Human Cell Engraftment in Primary NSG Mice, CD14",NSG mice; [2],2.1 ± 0.2 %
same,"% Human Cell Engraftment in Primary NSG Mice, CD19",NSG mice; [2],1.9 ± 1.1%
same,"% Human Cell Engraftment in Primary NSG Mice, CD33",NSG mice; [2],3.5 ± 0.6 %
same,"% Human Cell Engraftment in Primary NSG Mice, CD34",NSG mice; [2],1.6 ± 0.4 %
same,"% Human Cell Engraftment in Primary NSG Mice, CD41",NSG mice; [2],0.90 ± 0.6%
same,"% Human Cell Engraftment in Primary NSG Mice, CD45",NSG mice; [2],12.5%±5.0% and 12.5 ± 2.2%
same,"% Human Cell Engraftment in Primary NSG Mice, GPA",NSG mice; [2],9.8 ± 0.8%
same,CD45+CD34+ cells in marrow of primary NSG mice,NSG mice; [3],13.0%±8.7%
same,human CD45+ cell chimerism in marrow of primary NSG mice,NSG mice; [3],32.2%±11.3% and 32.3±10.2%
same,donor-derived CD34+ cells coexpressing CD184 in marrow,"NSG mice; cells cultured with cytokines plus VPA, SF, primary NSG mice",9.9%±9.6%
same,blood cancer or teratomas in primary or secondary recipients,"NSG mice; mouse, in vivo",None of the primary or secondary recipients of marrow cells receiving VPA-treated grafts developed evidence of blood cancer or developed teratomas
same,inhibition of HDAC expression,class I and II HDAC,did not inhibit HDAC expression
same,absolute numbers of BFU-E and CFU-Mix from ALDH+CD34+ cells,[1]; [4],1.4×10^7±0.88×10^7
same,numbers of BFU-E and CFU-Mix from ALDH-CD34+ cells,[1]; [4],2.7×10^6±1.0×10^6
same,absolute numbers of BFU-E and CFU-Mix from ALDH+CD34+ cells,[1]; [5],8.4×10^7±6.7×10^7 /CB collection
same,numbers of BFU-E and CFU-Mix from ALDH-CD34+ cells,[1]; [5],3.5×10^5±0.78×10^5
